In the supplement of paper PMC7017272:
± gives the standard deviation of the averaged measurements.

Experiments:
Details in all cases: treatment time: 3 days
UT-SCC-8 [1] = assay: relative IC50 (midpoint of the fitted curve; maximal inhibition may be below 50%); higher = less potent
Procedure, shortened: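 Three growth formats were used for HPV-negative HNSCC cell lines in 384-well plates at 500 cells/well: bare plastic, wells coated with Matrigel or Myogel (500 µg/mL), and embedding in Matrigel or Myogel plus rat collagen I. Compounds were added at five 10-fold concentrations, and after 3 days CellTiter-Glo 2.0 luminescence was recorded and normalised to vehicle (0.1% DMSO) and cell-killing control wells. IC50, maximal inhibition and drug sensitivity score came from percent-inhibition dose–response fitting in the FIMM pipeline.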

UT-SCC-81 = assay: maximal % inhibition of viability relative to DMSO; higher = stronger effect
Experimental: (§1)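 HNSCC cell lines (500 cells/well, 384-well) were cultured on plastic, on top of (2D) or embedded (3D) in Matrigel or human leiomyoma matrix Myogel (500 ug/mL; Myogel 3D mixed with rat collagen I). Cells were treated for 3 days with 5 ten-fold concentrations of each drug, and viability was read by CellTiter-Glo. Viability was normalised to DMSO and benzethonium chloride controls and fitted with the FIMM DSRT pipeline to give IC50 (nM), maximal % inhibition and DSS. Suffixes _1/_2/_3 are replicates. Only inhibition-mode (IC50) fits are kept.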

UT-SCC-40 = assay: as above
Experimental: as §1

UT-SCC-42A = assay: as above
Experimental: as §1

UT-SCC-24B = assay: as above
Experimental: as §1

UT-SCC-42B = assay: as above
Experimental: as §1

UT-SCC-73 = assay: as above
Experimental: as §1

UT-SCC-44 = assay: as above
Experimental: as §1

UT-SCC-8 [2] = assay: as above
Experimental: as §1

[3] = culture condition: embedded in Matrigel
[4] = culture condition: embedded in Myogel + collagen I
[5] = culture condition: on top of Matrigel
[6] = culture condition: on top of Myogel
[7] = culture condition: plastic 2D (no matrix)

O=C(NC[C@H](O)CO)c1ccncc1Nc1ccc(I)cc1F [Pimasertib]
relative IC50 (UT-SCC-8 [1]; [3]): 122 nM
relative IC50 (UT-SCC-8 [1]; [4]): 773 nM
relative IC50 (UT-SCC-8 [1]; [5]): 159 nM
relative IC50 (UT-SCC-8 [1]; [6]): 163 nM
relative IC50 (UT-SCC-8 [1]; [7]): 228 nM
maximal % inhibition of viability (UT-SCC-81; [3]): 88.7 ± 1.7%
maximal % inhibition of viability (UT-SCC-81; [4]): 68.2 ± 0.36%
maximal % inhibition of viability (UT-SCC-81; [5]): 86.1 ± 0.46%
maximal % inhibition of viability (UT-SCC-81; [6]): 71.2 ± 2.8%
maximal % inhibition of viability (UT-SCC-81; [7]): 78.6 ± 1.5%
maximal % inhibition of viability (UT-SCC-40; [3]): 80.6 ± 0.3%
maximal % inhibition of viability (UT-SCC-40; [4]): 72.8 ± 3.5%
maximal % inhibition of viability (UT-SCC-40; [5]): 77.77 ± 0.35%
maximal % inhibition of viability (UT-SCC-40; [6]): 64.6 ± 2.5%
maximal % inhibition of viability (UT-SCC-40; [7]): 64.5 ± 4.9%
maximal % inhibition of viability (UT-SCC-42A; [3]): 61.3 ± 7.5%
maximal % inhibition of viability (UT-SCC-42A; [4]): 51.3 ± 6.6%
maximal % inhibition of viability (UT-SCC-42A; [5]): 63.2 ± 0.95%
maximal % inhibition of viability (UT-SCC-42A; [6]): 55.7 ± 5.7%
maximal % inhibition of viability (UT-SCC-42A; [7]): 60.4 ± 7.4%
maximal % inhibition of viability (UT-SCC-24B; [3]): 72.7 ± 1.5%
maximal % inhibition of viability (UT-SCC-24B; [4]): 79.1 ± 8.2%
maximal % inhibition of viability (UT-SCC-24B; [5]): 75.8 ± 2.7%
maximal % inhibition of viability (UT-SCC-24B; [6]): 67.9 ± 2.7%
maximal % inhibition of viability (UT-SCC-24B; [7]): 88.9 ± 1.2%
maximal % inhibition of viability (UT-SCC-42B; [3]): 70.2 ± 1.9%
maximal % inhibition of viability (UT-SCC-42B; [5]): 59.9 ± 2.8%
maximal % inhibition of viability (UT-SCC-42B; [6]): 53 ± 2.7%
maximal % inhibition of viability (UT-SCC-42B; [7]): 49.2 ± 3.8%
maximal % inhibition of viability (UT-SCC-73; [3]): 86.2 ± 1.2%
maximal % inhibition of viability (UT-SCC-73; [4]): 78.7 ± 13%
maximal % inhibition of viability (UT-SCC-73; [5]): 81.93 ± 0.55%
maximal % inhibition of viability (UT-SCC-73; [6]): 76.4 ± 1.3%
maximal % inhibition of viability (UT-SCC-73; [7]): 79.6 ± 1.4%
maximal % inhibition of viability (UT-SCC-44; [3]): 93.77 ± 0.93%
maximal % inhibition of viability (UT-SCC-44; [4]): 66.6 ± 8.2%
maximal % inhibition of viability (UT-SCC-44; [5]): 81.8 ± 2.8%
maximal % inhibition of viability (UT-SCC-44; [6]): 66.3 ± 3.5%
maximal % inhibition of viability (UT-SCC-44; [7]): 69.6 ± 7.2%
maximal % inhibition of viability (UT-SCC-8 [2]; [3]): 93.8 ± 1.2%
maximal % inhibition of viability (UT-SCC-8 [2]; [4]): 82.5 ± 1.6%
maximal % inhibition of viability (UT-SCC-8 [2]; [5]): 90.4 ± 0.76%
maximal % inhibition of viability (UT-SCC-8 [2]; [6]): 85.8 ± 2.3%
maximal % inhibition of viability (UT-SCC-8 [2]; [7]): 90.3 ± 2.2%
